Test results: patent US20260283972A1, “A COMPOUND FOR PREPARING LIPID NANOPARTICLES ENCAPSULATING AN AGENT, NANOPARTICLE COMPOSITION COMPRISING SAID COMPOUND AND RELATED METHODS THEREOF” (AGENCY FOR SCIENCE, TECHNOLOGY AND RESEARCH, priority 2023, published 2026)
Entries after “also recorded” stand apart in the source; their conditions may differ.

Experiments:
Type in all cases: cell-based
[1] = tested on: Pseudomonas aeruginosa (ATCC No. 9027); assay: Antibacterial activity in vitro, broth microdilution MIC and MBC; conditions: for MIC P. aeruginosa: 24 h at 37° C.
Experimental: (§1) The MICs (minimum inhibitory concentrations) of the formulated LNPs containing polymyxin B and free polymyxin B against Gram-negative bacteria were determined using a broth microdilution method. Briefly, the bacteria were incubated overnight in MHB, and the bacteria suspension was diluted with MHB to achieve a concentration of […] (CFU)/mL (O.D. 600=0.100). This was followed by a 1000-fold dilution in MHB. The bacterial suspension was then seeded into a 96-well plate (80 μL per well) and mixed with 20 μL of MHB containing different polymyxin B-loaded LNPs or free polymyxin B concentrations. The 96-well plate was incubated for 24 h at 37° C. (bacteria). […] The MIC experiments were performed with four independent replicates. The MBCs (minimum bactericidal concentrations) were evaluated at the end of the MIC experiment.
(§2) The microbial suspension was then spread on LB agar plates, and the plates were incubated at 37° C. for 24 h to determine CFU on each agar plate. The experiments were performed in replicates of five. The MBC experiment was conducted with three independent replicates.

[2] = tested on: Escherichia coli (ATCC No. 25922); assay: as above; conditions: for MIC E. coli: 24 h at 37° C.
Experimental: as §1, §2

SH-SY5Y cells = assay: In vitro neurotoxicity, cell viability (AlamarBlue)
Experimental: HEK293 cells were grown in Dulbecco's […] (DMEM) supplemented with 10% FBS and 5% penicillin/streptomycin (Corning). SY-SY5Y cells were grown with a mixture of DMEM/Ham's F-12 with 2 mM L-glutamine (50:50 v/v) supplemented with 10% FBS and 5% penicillin/streptomycin. All cultures were grown in 37° C. incubators supplemented with 5% CO2 and were cultured according to suppliers' instructions. For all screening, cells were plated in 96-well plates at 10,000 cells per well in 100 μL of the appropriate media outlined above for the different cells. The formulated LNPs containing polymyxin B and free polymyxin B were then added to the wells at the desired polymyxin B concentration (e.g., 300, 150, 75, 37.5, 18.8, 9.4 μg mL^−1). The polymyxin B concentration of formulated LNPs was determined using the calibration plot of polymyxin B standards.

[3] = Table 6, experiment with 2nd formulation
[4] = Table 7, experiment with 1st formulation

Substance: Polymyxin B [Polymyxin B (PB)]
- MBC P. aeruginosa [1, 3]: 2.50 µg/mL
- MIC P. aeruginosa [1, 3]: 1.25 µg/mL
- MBC P. aeruginosa [1, 4]: 5.0 µg/mL
- MIC P. aeruginosa [1, 4]: 5.0 µg/mL
- MBC E. coli [2, 3]: 5.0 µg/mL
- MIC E. coli [2, 3]: 1.25 µg/mL
- MBC E. coli [2, 4]: 5.0 µg/mL
- MIC E. coli [2, 4]: 5.0 µg/mL
- viability of SH-SY5Y cells (SH-SY5Y cells; 300 μg mL^−1 of polymyxin B, 24 h incubation): ~ 76%
- neurotoxicity / cell toxicity against SH-SY5Y (SH-SY5Y cells; high concentration, 300 μg mL^−1, listed as free polymyxin B): relatively pronounced cell toxicity; also recorded: Pronounced neurotoxicity was observed
